Here are results for 20 molecules from patent publication US20100331384A1, “GUANIDINE BASED COMPOUNDS” (UNIVERSIDAD DEL PAIS VASCO/EUSKAL HERRIKO UNIBERTSITATEA, priority 2007, published 2010).

Test [1] concerns the target T1, α2-ARs (Homo sapiens, UniProt P08913).
T1 construct: other: human brain tissue in vitro; other: stimulation of [35S]GTPγS b
Description: [35S]GTPγS binding functional assay, compounds alone. As to conditions: for agonistic or antagonistic properties in [35S]GTPγS experiments: human brain PFC; for stimulation of [35S]GTPγS binding by the compound on its own: human brain PFC membranes; for Emax: read-out: Emax (%), percentage efficacy relative to UK14304. The format is biochemical. The procedure: The [^35S]GTPγs binding assay constitutes a functional measure of the interaction of the receptor and the G-protein and is a useful tool to distinguish between agonists (increasing the nucleotide binding), inverse agonists (decreasing the nucleotide binding), and neutral antagonists (not affecting the nucleotide binding) of GPCRs.^20 Experiments were performed in low-affinity receptor conditions for agonists (presence of guanine nucleotides and sodium in the medium), and therefore, typical potency values are two-three logarithmic units lower than affinity values obtained in radioligand receptor binding experiments.^20
Preparation of membranes. Neural membranes (P2 fractions) were prepared from the PFC of human brains obtained at autopsy in the Instituto Vasco de Medicina Legal, Bilbao, Spain. Postmortem human brain samples of each subject (˜1 g) were homogenized using a Teflon-glass grinder (10 up-and-down strokes at 1500 rpm) in 30 volumes of homogenization buffer (1 mM MgCl2, and 5 mM Tris-HCl, pH 7.4) supplemented with 0.25 M sucrose. The crude homogenate was centrifuged for 5 min at 1000×g ([…]) and the supernatant was centrifuged again for 10 min at 40000×g (4° C.). The resultant pellet was washed twice in 20 volumes of homogenization buffer and recentrifuged in similar conditions. Aliquots of 1 mg protein were stored at −70° C. until assay.
[^35S]GTPγs binding assays. The incubation buffer for measuring [^35S]GTPγs binding to brain membranes contained, in a total volume of 500 μL, 1 mM EGTA, 3 mM MgCl2, 100 mM NaCl, […], 50 mM Tris-HCl at pH 7.4 and 0.5 nM [^35S]GTPγs. Proteins aliquots were thawed and re-suspended in the same buffer. The incubation was started by addition of the membrane suspension (40 μg of membrane proteins) to the previous mixture and was performed at 30° C. for 120 min with shaking. In order to evaluate the influence of the compounds on [^35S]GTPγs binding, 8 concentrations (10^−10 to 10^−3M) of the different compounds were added to the assay. Incubations were terminated by adding 3 mL of ice-cold re-suspension buffer followed by rapid filtration through Whatman GF/C filters pre-soaked in the same buffer. The filters were rinsed twice with 3 mL of ice-cold re-suspension buffer, transferred to vials containing 5 mL of OptiPhase HiSafe II cocktail (Wallac, UK) and the radioactivity trapped was determined by liquid scintillation spectrometry (Packard 2200CA). […] Non-specific binding of the radioligand was defined as the remaining [^35S]GTPγs binding in the presence of 10 μM unlabelled GTPγs.
A general note: Binding of GTPγS marks nucleotide exchange on a G protein.

The target of test [2] is T1, α2-ARs. Description: [3H]RX821002 competition binding assay in human brain PFC membranes. As to conditions: human brain tissue in vitro.
In test [3] the target is α2-ARs. To be noted: starred compounds, affinity reported in reference 9 by the same group; cited from earlier work.
For test [4], the system named is extracellular NA levels in the PFC. Description: In vivo microdialysis in the PFC, extracellular NA. To be noted: local administration by reverse dialysis 1-100 μM in PFC, percentage of basal values. More on the design: species or system male Sprague Dawley rats. The source says:
Intracerebral microdialysis is a neurochemical technique that has been applied extensively in pharmacological studies aimed at investigating the effect of different drugs on brain neurotransmission. This technique allows one to collect a representative concentration of different neurotransmitters of the area where the probe is implanted while the animals are awake and freely moving.^21
Most antidepressant drugs are able to increase NA extracellular concentrations in different brain areas as the PFC, an area implicated in depression disease. Considering that α2-ARs exert a tonic inhibitory action on NA release from the noradrenergic terminals we assessed the ability of these two new compounds to increase NA extracellular concentration in this area. First, we tested the drugs when administered locally in order to confirm their antagonistic activity over α2-ARs in vivo.
A second step was to study the effect of these compounds increasing NA extracellular concentrations when administered systemically.
In Vivo Microdialysis assays. The experiments were carried out in male Sprague Dawley rats weighing between 250 g and 300 g. At the beginning of the experiments, animals were anaesthetized with chloral hydrate (400 mg/kg i.p.) and a microdialysis probe was implanted by stereotaxic surgery into prefrontal cortex (PFC) brain area. The coordinates selected for the PFC were as follows: AP (anterior to bregma) +2.8 mm, L (lateral from the mid-sagittal suture) +1 mm, DV (ventral from the dura surface) −5 mm.^22 After 24 hours for animal recovery, perfusion fluid (artificial cerebrospinal fluid) is pumped through the probe at a flow rate of 1 μl/min. In the semipermeable membrane, that is the critical side of the probe and is placed on the selected area, molecules flow into and out the cannulae by diffusion. Therefore, microdialysis technique allows local administration of substrates dissolved in the perfusion fluids.
When drugs were locally administered, they were dissolved in a CSF and applied during 70 min via dialysis probe implanted in the PFC in increasing concentrations of 1, 10 and 100 μM. The compounds systemically administered were dissolved in saline and injected intraperitoneally.
Samples, collected with the microdialysis procedure (every 35 min), were analyzed by HPLC with electrochemical detection. NA concentrations were monitorizated by an amperometric detector (Hewlett-Packard model 1049A) at an oxidizing potential of +650 mV. The movil phase (12 mM citric acid, 1 mM EDTA, 0.7 mM octylsodio sulfate, pH 5 and 10% methanol) was filtered, degassed (Hewlett-Packard model 1100 degasser) and delivered at a flow rate of 0.2 ml/min by a Hewlett-Packard model 1100 pump. Stationary phase was a column of 150×2.1 mm (Thermo Electron Corporation, U.S.A.). Samples (injection volume 37 μl) were injected and NA analized in a run time of 10 min. Solution of standard noradrenaline was injected every working day to create a new calibration table.
The mean values of the first three samples before substrate administration were considered as 100% basal value. All measures of extracellular NA concentrations are expressed as percentage of the baseline value±s.e.mean. One way analysis of variance (ANOVA) for control group or two way ANOVA between control and each treated group was assessed for statistical analysis. After the experiments, rats were sacrificed with an overdose of chloral hydrate and the brains were dissected to check the correct implantation of the probe.

T1 sequence (P08913 whole entry): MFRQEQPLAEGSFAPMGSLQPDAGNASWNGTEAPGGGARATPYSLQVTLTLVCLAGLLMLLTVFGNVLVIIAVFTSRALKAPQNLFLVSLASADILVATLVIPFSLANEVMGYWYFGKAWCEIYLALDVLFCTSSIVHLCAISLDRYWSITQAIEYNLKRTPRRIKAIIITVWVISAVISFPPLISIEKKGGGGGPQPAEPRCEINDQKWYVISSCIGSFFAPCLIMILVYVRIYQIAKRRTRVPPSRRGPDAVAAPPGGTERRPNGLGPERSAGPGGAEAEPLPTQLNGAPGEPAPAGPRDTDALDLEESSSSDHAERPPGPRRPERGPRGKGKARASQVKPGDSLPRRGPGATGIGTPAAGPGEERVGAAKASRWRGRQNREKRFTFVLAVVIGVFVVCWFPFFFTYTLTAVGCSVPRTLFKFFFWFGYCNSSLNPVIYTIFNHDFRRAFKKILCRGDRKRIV

On to `N=C(N)Nc1ccc2c(c1)Cc1ccc(NC(=N)N)cc1C2` [Compound 21b, 2,6-diguanidino-9,10-dihydroanthracene], for which, in test [1], the “agonistic or antagonistic properties in [35S]GTPγS experiments” value (“agonistic or antagonistic properties” below) is “agonistic properties” and the “stimulation of [35S]GTPγS binding by the compound on its own” value (from here on “stimulation of [35S]GTPγS binding”) is recorded as “did not stimulate binding”. Further, in test [2], the “affinity towards the α2-ARs compared with references” value is given as “within the range of those of Idazoxan and/or Clonidine”.
In the case of `Nc1ccc(NC2=NCCN2)cc1` [Compound 30a], the “affinity values (pKi) for the α2-ARs” value in test [3] was 6.92.
As to `c1ccc(Nc2ccc(NC3=NCCN3)cc2)cc1` [Compound 25a], the “affinity values (pKi) for the α2-ARs” value in test [3] is recorded as 6.56.
`N=C(N)Nc1ccc(Oc2ccccc2)cc1` [Compound 26b]: the “affinity values (pKi) for the α2-ARs” value in test [3] is 6.05.
With `c1ccc2c(c1)OCC(C1=NCCN1)O2` (stereo not drawn) [Idazoxan, reference compound], in test [4], the “Emax of increase in extracellular NA levels” value came out at 235±42%.
Take `c1cc2c(cc1NC1=NCCN1)CCCC2` [Compound 10b, imidazolidin-2-ylidene-(5,6,7,8-tetrahydro-naphthalen-2-yl)-amine]: in test [1], the “agonistic or antagonistic properties” value is listed as “agonistic properties”, the “stimulation of [35S]GTPγS binding” value is given as “stimulated binding” and the maximal response (Emax) worked out at 100%. Also, the “affinity towards the α2-ARs compared with references” value in test [2] is reported as “within the range of those of Idazoxan and/or Clonidine”.
Consider `N=C(N)Nc1ccc(Nc2ccccc2)cc1` [Compound 25b], for which the “affinity values (pKi) for the α2-ARs” value in test [3] is given as 6.83.
Take `N=C(N)Nc1ccc(Sc2ccccc2)cc1` [Compound 27b]: the “affinity values (pKi) for the α2-ARs” value in test [3] was 6.30.
As to `CSc1ccc(NC2=NCCN2)cc1` [Compound 29a], the “affinity values (pKi) for the α2-ARs” value in test [3] is given as 7.07.
Take `c1ccc(Oc2ccc(NC3=NCCN3)cc2)cc1` [Compound 26a]: in test [3], the “affinity values (pKi) for the α2-ARs” value is 6.58.
Consider `Cc1ccc(NC2=NCCN2)cc1C` [Compound 8b, 1-(2-imidazolidinylimino)-3,4-dimethylbenzene], for which, in test [1], the “agonistic or antagonistic properties” value is recorded as “agonistic properties”, the “stimulation of [35S]GTPγS binding” value was “stimulated binding” and the Emax came to 89%. For the same molecule, the “affinity towards the α2-ARs compared with references” value in test [2] is listed as “within the range of those of Idazoxan and/or Clonidine”.
On to `COc1ccc(NC2=NCCN2)cc1` [Compound 28a], for which the “affinity values (pKi) for the α2-ARs” value in test [3] is 7.77.
Turning to `Cc1ccc(NC2=NCCN2)cc1` [Compound 6b, 1-(2-imidazolidinylimino)-4-methylbenzene], in test [1], the “agonistic or antagonistic properties” value is on record as “agonistic properties”, the “stimulation of [35S]GTPγS binding” value is given as “stimulated binding” and the maximal response (Emax) worked out at 97%. The “affinity towards the α2-ARs compared with references” value in test [2] was “within the range of those of Idazoxan and/or Clonidine”.
Turning to `c1cc2c(cc1NC1=NCCN1)Cc1ccc(NC3=NCCN3)cc1C2` [Compound 18b, 2,6-di(2-imidazolidinylimino)-9,10-dihydroanthracene], in test [1], the “agonistic or antagonistic properties” value is given as “agonistic properties” and the “stimulation of [35S]GTPγS binding” value is listed as “did not stimulate binding”. Moreover, the “affinity towards the α2-ARs compared with references” value in test [2] was “within the range of those of Idazoxan and/or Clonidine”.
Regarding `CSc1ccc(NC(=N)N)cc1` [Compound 29b], the “affinity values (pKi) for the α2-ARs” value in test [3] is 6.40.
Regarding `COc1ccc(NC(=N)N)cc1` [Compound 28b], in test [3], the “affinity values (pKi) for the α2-ARs” value was 6.39.
On to `N=C(N)Nc1ccc(N)cc1` [Compound 30b], for which the “affinity values (pKi) for the α2-ARs” value in test [3] is on record as 5.58.
Regarding `c1ccc(Cc2ccc(NC3=NCCN3)cc2)cc1` [Compound 4b, 1-(2-imidazolidinyliminio)-4-benzylbenzene], the Emax in test [1] was 111%.
`c1ccc(Sc2ccc(NC3=NCCN3)cc2)cc1` [Compound 27a]: the “affinity values (pKi) for the α2-ARs” value in test [3] is 6.62.
On to `N=C(N)Nc1ccc2c(c1)OCO2` [Compound 3b], for which the “affinity values (pKi) for the α2-ARs” value in test [3] was 6.40.

For orientation: Emax means the maximal effect, on the per cent scale that the assay sets.
